The test system of one series is BACE1. In words: BACE1 expression in SH-SY5Y cells under H2O2 oxidative stress (western blot). Type of series: cell-based, human. The note with it: 10 μM RA-PR058 24 hours, then 200 μM H2O2 4 hours, normalized with β-Actin, n = 4. As for the experimental part:
Human neuroblastoma cell line, SH-SY5Y were maintained in DMEM (Welgene) supplemented with 10% fetal bovine serum (FBS, Gibco) and 1% penicillin/streptomycin (Capricorn) at 37 °C in a humidified atmosphere containing 5% CO2. […] [2024]). Samples for western blot analysis were prepared as previously described (Gwon et al. [2012]). Cells were lysed with T-PER^TM Tissue Protein Extraction Reagent (Thermo Fisher Scientific) supplemented with protease/phosphatase inhibitor cocktail (Thermo Fisher Scientific) and incubated at 4 °C for 10 minutes. After incubation, lysed samples were centrifuged at 13,000 x rpm for 10 minutes at 4 °C and the supernatant were used for western blot analysis. The cortices and hippocampi tissues were homogenized using RIPA lysis buffer (Millipore) supplemented with protease/phosphatase inhibitor cocktail and incubated at 4 °C for 30 minutes. Following incubation, lysed tissues were centrifuged at 13,000 x rpm for 30 minutes at 4 °C and the supernatant were used for western blot analysis. Protein concentrations were measured using Pierce^TM BCA Protein Assay Kits (Thermo Fisher Scientific). Equal amounts of proteins were mixed with NuPAGE^TM LDS Sample Buffer (Invitrogen) and 5% 2-mercaptoethanol (Sigma) and then boiled at 95 °C for 5 minutes. […] Protein bands were quantified using ImageJ (NIH).

Series [1] in a line: Plasma and brain pharmacokinetics after oral administration. It is filed as in vivo. As to conditions: Sprague-Dawley, rat, 10 mg/kg oral, S.D. rats; for AUC(0-t): read-out: AUC0-7h. As for the experimental part:
Pharmacokinetic assays were conducted by NeuroVis (Republic of Korea). 10 mg/kg of RA-PR058 was administered to Sprague–Dawley rats by either oral administration route or intravenous injection route. Blood sampling was conducted using the BASi Culex ABS system. After cannulation, catheters were inserted into the jugular vein and the carotid artery of the rats, with the system programmed to collect 200 μL samples. Collected blood samples were centrifuged at 12,000 x rpm for 10 minutes to separate plasma, which was then immediately stored at −80 ℃. For brain pharmacokinetics, 10 mg/kg of RA-PR058 was administered orally to Sprague–Dawley rats, followed by collection of both blood and brain tissue. After collection, samples were mixed with the internal standard, ofloxacin, and centrifuged at 13,000 x rpm for 5 minutes at 4 ℃. The resulting supernatants were then combined with 50% methanol and analyzed by LC-MS/MS.

Another series deals with 3xTg-AD mice. The experiment in a line: Elevated plus maze test in 3xTg-AD mice. It is filed as in vivo, mouse. As to conditions: 20 mg/kg oral daily for 1 month, vs vehicle-treated 3xTg-AD. As for the experimental part:
3xTg-AD (B6;129-Tg(APPSwe,tauP301L)1Lfa Psen1^tm1Mpm/Mmjax) mice and their littermate wild-type (WT) mice were used in this study. Each experimental group consisted of 4–8 mice, with groups designated as WT, 3xTg-AD Vehicle, and 3xTg-AD RA-PR058. All mice were maintained in a 12-hour light/dark cycle with free access to food and water. 7-month-old age of mice were administered with 20 mg/kg of RA-PR058 orally once a day for 1 month followed by the elevated plus maze test. All animal experimental procedures were approved by the Institutional Animal Care and Use Committee of Sungkyunkwan University (SKKUIACUC2022-10-41-1).
The elevated plus maze (EPM) test is a widely used behavioral assay to assess anxiety-like behavior in mice (Walf and Frye [2007]). After administering RA-PR058 for 1 month, EPM was performed to evaluate its effects. Briefly, the mouse was placed in the center of the maze, facing an open arm, and allowed to explore freely for 5 minutes. Behavioral patterns were recorded and analyzed by EthoVision software (Noldus). Data were used to assess the effects of RA-PR058 on anxiety-like behavior compared to control mice.

As usually defined, the Cmax is the maximum level reached in the sampled fluid or tissue. What is called half-life is the time in which the quantity being followed falls by half. Low values mean rapid decline, high ones slow decline.

SMILES strings stand for the structures. Where two headings read alike, the source gives them in different places.

Regarding `Cl.N[C@@H](CCC(=O)NNc1ccccc1F)C(F)F` [RA-PR058, (S)-4-amino-5,5-difluoro-N'-(2-fluorophenyl)pentanehydrazide hydrochloride], the “H2O2-induced increase in BACE1 expression” value in the series with BACE1 was “markedly attenuated”. Also, the Kp in series [1] (brain and plasma, read-out: Brain-to-plasma AUC ratio (AUC0–7h)) was determined as 0.916. In series [1] (Brain), the Cmax came to 3190 ng/mL, the half-life is 1.57 h and the AUC(0-t) was 6090 ng·h/mL. In series [1] (Plasma), the Cmax is 3900 ng/mL, the half-life is 1.06 h and the AUC(0-t) stood at 5700 ng·h/mL. Further, the “Time spent in open arms of the EPM” value in the series with 3xTg-AD mice is “significantly more time”.

The values are drawn from PMC11809180, “RA-PR058, a novel ramalin derivative, reduces BACE1 expression and phosphorylation of tau in Alzheimer’s disease mouse models” (Animal Cells and Systems, 2025).
